Measurements published in publication PMC2009384, “The carcinogenicity of polycyclic hydrocarbon epoxides in newborn mice” (British Journal of Cancer, 1975).

Tested on: newborn Swiss mice
Test: Experiment II: carcinogenicity in newborn mice, chrysene, 7-methylbenz(a)anthracene and K region epoxides (s.c. injection, tumour incidence to 70-75 weeks)
Conditions: for No. of mice examined at p.m. at termination of experiment (70-75th week) with liver tumours / No. of mice examined at p.m. at termination of experiment (70-75th week) with lung tumours / No. of mice examined at p.m. at termination of experiment (70-75th week) with multiple liver tumours / No. of mice examined at p.m. at termination of experiment (70-75th week) with multiple lung tumours / No. of mice examined at p.m. at termination of experiment (70-75th week) with other tumours / No. of mice examined at p.m. from 50-70th week with liver tumours / No. of mice examined at p.m. from 50-70th week with lung tumours / No. of mice examined at p.m. from 50-70th week with other tumours / No. of survivors at 50 weeks / No. of survivors at 70 weeks: 100 µg per treatment; for No. of mice examined at p.m. at termination of experiment (70-75th week) with liver tumours / No. of mice examined at p.m. at termination of experiment (70-75th week) with lung tumours / No. of mice examined at p.m. at termination of experiment (70-75th week) with multiple liver tumours / No. of mice examined at p.m. at termination of experiment (70-75th week) with multiple lung tumours / No. of mice examined at p.m. at termination of experiment (70-75th week) with other tumours / No. of mice examined at p.m. from 50-70th week with liver tumours / No. of mice examined at p.m. from 50-70th week with lung tumours / No. of mice examined at p.m. from 50-70th week with other tumours: 3 treatments; for No. of survivors at 50 weeks / No. of survivors at 70 weeks: 3 treatments (Days 0, 1 and 2) s.c. in PEG 400
Text: Br. J. Cancer (1975) 31, 182 THE CARCINOGENICITY OF POLYCYCLIC HYDROCARBON EPOXIDES IN NEWBORN MICE P. L. GROVER, P. SIMS, B. C. V. MITCHLEY AND F. J. C. ROE From the Chester Beatty Research Institute, Institute of Cancer Research, Royal Cancer Hospital, Fulham Road, London, SW3 6JB Received 9 August 1974. […] THE HYPOTHESIS that the carcino- genicity of polycyclic hydrocarbons is associated with the formation of epoxide metabolites (Grover, Hewer and Sims, 1971, 1972; Keysell et al., 1973) is sup- ported by some experimental evidence but remains unproven. […] The epoxides can also act as alkylating agents (Grover and Sims, 1970) and as mutagens (Ames, Sims and Grover, 1972; Huberman et al., 1971; Cookson, Sims and Grover, 1971; Fahmy and Fahmy, 1973). […] The newborn mouse, which is susceptible to carcinogenic polycyclic hydrocarbons (Roe, Rowson and Salaman, 1961; Roe, Mitchley and Walters, 1963; Walters and Roe, 1964, 1966) can be considered as a convenient source of several types of rapidly dividing cells. Consequently we have tested the K region epoxides derived from phenanthrene, benz(a)anthracene, 7-methylbenz(a)anthracene, dibenz(a,h)- anthracene, chrysene and 3-methylchol- anthrene, together with some of the CARCINOGENICITY OF POLYCYCLIC HYDROCARBON EPOXIDES IN MICE 183 parent hydrocarbons, for carcinogenicity using newborn mice. This paper presents the results that were obtained in these experiments. MATERIALS AND METHODS The polycyclic hydrocarbon epoxides, phenanthrene 9,10-oxide, benz(a)anthracene 5,6-oxide, 7-methylbenz(a)anthracene 5,6- oxide, dibenz(a,h)anthracene 5,6-oxide, chry- sene 5,6-oxide and 3-methylcholanthrene 11,12-oxide were prepared from the parent hydrocarbons (Newman and Blum, 1964; Boyland and Sims, 1965; Sims 1966). Two experiments were undertaken fol- lowing similar protocols. For each experi- ment Swiss mice from a specific pathogen- free colony were time mated so as to produce a large number of litters over the course of 2 or 3 days. […] Test compounds were suspended in poly- ethylene glycol (PEG) 400 and injections of 0-02 ml of the suspension were given by introducing a 25 gauge hypodermic needle through the skin near the root of the tail and threading it subcutaneously to deliver the injected material in the interscapular region. Injections were given to every mouse on the first day or first 3 days of life. The details of treatments and numbers of mice of each sex in each group are shown in Table I (Experiment I) and Table II (Ex- periment II). Surviving mice were weaned when they w ere 21 days old. Thereafter, males and females w ere separated and housed 6 per cage in metal boxes. A mixture of sawdust and wood shavings was used as bedding. The mice were fed on a standard cubed diet (Formulation 86 from C. Holdman and Sons (Plow co Feeds), Byers Lane, South Godstone, Surrey) and water was given ad libitum. Mice were inspected daily, and at weekly intervals they were weighed and palpated for tumours and other lesions. […] The experiment was terminated when surviving mice were between 70 and 75 weeks old. A full routine post- mortem examination, which included disten- sion of the urinary bladder with fixative, was carried out. The number of lesions thought to be neoplasms and the size of the largest such lesion in each organ affected were recorded. All tissues with suspected neoplasms were fixed in Bouin's solution. Haematoxylin and eosin stained 5 µm paraffin wax sections were prepared and examined microscopically. RESULTS The results of the two experiments in terms of tumour incidence are sum- marized in […].

## Cc1c2c(cc3ccccc13)-c1ccccc1C1OC21 (stereo not drawn) [7-Methylbenz(a)anthracene 5,6-oxide]
3 x 100 µg s.c., newborn, 7-methylbenz(a)anthracene pair
  incidence of lung tumours: slightly raised
females
  No. of mice examined at p.m. at termination of experiment (70-75th week) with liver tumours: 0
  No. of mice examined at p.m. at termination of experiment (70-75th week) with lung tumours: 6
  No. of mice examined at p.m. at termination of experiment (70-75th week) with multiple liver tumours: 0
  No. of mice examined at p.m. at termination of experiment (70-75th week) with multiple lung tumours: 3
  No. of mice examined at p.m. at termination of experiment (70-75th week) with other tumours: 0
  No. of mice examined at p.m. from 50-70th week with liver tumours: 0
  No. of mice examined at p.m. from 50-70th week with lung tumours: 1
  No. of mice examined at p.m. from 50-70th week with other tumours: 0
  No. of survivors at 50 weeks: 25
  No. of survivors at 70 weeks: 22
males
  No. of mice examined at p.m. at termination of experiment (70-75th week) with liver tumours: 4
  No. of mice examined at p.m. at termination of experiment (70-75th week) with lung tumours: 2
  No. of mice examined at p.m. at termination of experiment (70-75th week) with multiple liver tumours: 2
  No. of mice examined at p.m. at termination of experiment (70-75th week) with multiple lung tumours: 2
  No. of mice examined at p.m. at termination of experiment (70-75th week) with other tumours: 0
  No. of mice examined at p.m. from 50-70th week with liver tumours: 0
  No. of mice examined at p.m. from 50-70th week with lung tumours: 0
  No. of mice examined at p.m. from 50-70th week with other tumours: 0
  No. of survivors at 50 weeks: 20
  No. of survivors at 70 weeks: 20
